One data set can be described thus: acute toxicity (LD50). Particulars: mouse, in vivo, po, mice, observation time 14 days; for mortality at 336 h: p.o., printed with LD50 >250 mg/kg, read-out: animals died. As for the experimental part:
3. The acute toxicity of some of the compounds for orientation (observationtime : 14 days) was determined on mice, or the LD50 was calculated from the percentage of animals which died after different doses within the observation time [see J. Pharmacol. exper. Therap. 96, 99(1949)].

The next data set concerns bleeding time. Briefly: prolongation of the bleeding time (method of Duke). Format: in vivo. The note with it: non-anesthetized mice, 10 mgm/kg per os, after one hour, compared to untreated animals; for change in vivo at 10 mg/kg: Mus musculus, po, 1 h. An excerpt: The prolonging effect upon the bleeding time was ascertained by the method of Duke, J. Amer. Med. Assoc. 15, 1185 (1910). 2. To determine the bleeding time, 10 mgm/kg of the test compound is given per os to non-anesthetized mice. After one hour, about 0.5 mm is cut off from the tail of each animal. The exuded blood is soaked up with filter paper every 30 seconds. The number of drops of blood so obtained is used as a measure for the bleeding time compared to untreated animals (5 animals/test).

Data set [1] concerns thrombocyte aggregation / platelet stickiness (human blood). Description: retention test according to Morris (reduction in platelet stickiness, glass beads). In kind it is cell-based. The note with it: 5×10^-5 mol/liter, 10 minutes at 37°C, average of 4 - 6 determinations; for inhibition at 50 µM: Platelet, 10 min. As for the experimental part: The inhibiting effect upon the platelet stickiness was determined by means of the so-called retention test according to Morris [see E. Deutsch et al, 1.Internationales Symposium uber Stoffwechsel and Membranpermeabilitat von Erythrocyten and Thrombocyten, Vienna, Austria (1969); Georg Thieme Verlag, Stuttgart, Germany]. […] To determine the inhibiting action of the test compound upon thrombocyte aggregation, 1 ml of human blood is pipetted into small test tubes, and the test compound is added to a final concentration of 5×10^^-5 mol/liter. The tubes are incubated for 10 minutes at 37°C. 1 gm of glass beads (glass beads for gas-chromatography) is added to half of the tubes. Finally the closed tubes are attached to a vertical wheel and rotated for 1 minute. By this means good contact is obtained between the glass beads and the blood. The tubes are then allowed to stand at room temperature for another hour, after which time a satisfactory sedimentation of erythrocytes has taken place. 0.01 ml of the supernatant plasma is removed, diluted to 1 : 8,000 with celloscope solution, and the platelet count is read in the celloscope. The percent reduction in the stickiness due to the presence of the substance (compared to tubes without glass beads) is measured and the average of 4 - 6 determinations is taken.

In data set [2] the test system is anesthetized cats and dogs. Description: hypotensive tests (method of Eckenhoff). In kind it is in vivo. The note with it: in words, warm-blooded animals, such as mice. The procedure:
The hypotensive tests were performed on anesthetized cats and dogs by the method of Eckenhoff, Amer. J. Physiol. 148, 582 (1947).

Counter-ions that a name gives are not always drawn.

As to `O=C(O)/C=C\C(=O)O.c1cnc2c(N3CCSCC3)nc(N3CCNCC3)nc2c1` [A, 2-piperazino-4-thiomorpholinopyrido[3,2-d]pyrimidine maleate], the LD50 at 336 h in the data set “acute toxicity (LD50)” amounted to 413 mg/kg. Besides, the change in vivo at 10 mg/kg in the data set on bleeding time was found to be 171%. The compound also returned an inhibition at 50 µM in data set [1] of 99%.

For `CN1CCN(c2nc(N3CCSCC3)c3ncccc3n2)CC1` [B, 2-(n'-methyl-piperazino)-4-thiomorpholino-pyrido[3,2-d] pyrimidine dihydrochloride], the change in vivo at 10 mg/kg with bleeding time was found to be 118%. The compound also registered an inhibition at 50 µM in data set [1] of 53%.

With `Cl.Cl.[O-][S+]1CCN(c2nc(N3CCNCC3)nc3cccnc23)CC1` [C, 2-piperazino-4-(1'-oxido-thiomorpholino)-pyrido[3,2-d] pyrimidine dihydrochloride], the LD50 at 336 h in the data set “acute toxicity (LD50)” was 872 mg/kg. The hypotensive activity entry in data set [2] was “particularly pronounced”. For the same compound, in data set [1], the inhibition at 50 µM amounted to 99%.

`CN1CCN(c2nc(N3CC[S+]([O-])CC3)c3ncccc3n2)CC1` [D, 2-(n'-methyl-piperazino)-4-(1'-oxido-thiomorpholino)-pyrido[3,2-d]pyrimidine dihydrochloride] gave a change in vivo at 10 mg/kg in the data set on bleeding time of 88%. The same compound registered an inhibition at 50 µM in data set [1] of 87%.

`[O-][S+]1CCN(c2nc(N(CCCO)CCCO)nc3cccnc23)CC1` [E, 2-(dipropanol-amino)-4-(1'-oxido-thiomorpholino)-pyrido[3,2-d]pyrimidine hydrochloride] returned a change in vivo at 10 mg/kg in the data set with bleeding time of 40%. Also, in data set [1], the inhibition at 50 µM was determined as 88%.

As for `c1cnc2c(N3CCNCC3)nc(N3CCSCC3)nc2c1` [Example 27, 2-Thiomorpholino-4-piperazino-pyrido[3,2-d]pyrimidine], in data set [2], the hypotensive activity result is recorded as “particularly pronounced”.

With `Cl.[O-][S+]1CCN(c2nc(N(CCO)CCCCCCO)nc3cccnc23)CC1` [F, 2-(n-ethanol-hexanolamino)-4-(1'-oxido-thiomorpholino)-pyrido[3,2-d]pyrimidine hydrochloride], the “Prolongation of Bleeding Time” value with bleeding time is reported as 35%. Moreover, in data set [1] (50 µM), the “Reduction in Stickiness” value is reported as 71%.

Regarding `CC1CN(c2nc(N3CCNCC3)nc3cccnc23)CC[S+]1[O-]` (stereo not shown) [G, 2-piperazino-4-(1'-oxido-2'-methyl-thiomorpholino)-pyrido[3,2-d]pyrimidinedihydrochloride], in the data set with bleeding time, the change in vivo at 10 mg/kg was found to be 55%. The compound further registered an inhibition at 50 µM in data set [1] of 96%.

In the data set on bleeding time, `c1cnc2c(N3CCOCC3)nc(N3CCNCC3)nc2c1` [H, 2-piperazino-4-morpholino-pyrido[3,2-d]pyrimidine dihydrochloride] showed a change in vivo at 10 mg/kg of 55%. Further, the inhibition at 50 µM in data set [1] was determined as 96%.

`CN1CCN(c2nc(N3CCOCC3)c3ncccc3n2)CC1` [I, 2-(n'-methyl-piperazino)-4-morpholino-pyrido[3,2-d] pyrimidine dihydrochloride] displayed a change in vivo at 10 mg/kg in the data set on bleeding time of 40%. This compound also showed an inhibition at 50 µM in data set [1] of 70%.

The compound `OCCCN(CCCO)c1nc(N2CCOCC2)c2ncccc2n1` [J, 2-(dipropanol-amino)-4-morpholino-pyrido[3,2-d]pyrimidine dihydrochloride] had a change in vivo at 10 mg/kg in the data set on bleeding time of 45%. The compound further registered an inhibition at 50 µM in data set [1] of 50%.

In the data set on bleeding time, `c1cnc2c(N3CCCCC3)nc(N3CCNCC3)nc2c1` [K, 2-piperazino-4-piperidino-pyrido[3,2-d]pyrimidine dihydrochloride] showed a change in vivo at 10 mg/kg of 138%. The inhibition at 50 µM in data set [1] was found to be 39%.

On to `OCCCN(CCCO)c1nc(N2CCCCC2)c2ncccc2n1` [L, 2-(dipropanol-amino)-4-piperidino-pyrido[3,2-d]pyrimidine hydrochloride], for which, in the data set on bleeding time, the change in vivo at 10 mg/kg was 103%. Besides, in data set [1], the inhibition at 50 µM stood at 20%.

On to `O=S1(=O)CCN(c2nc(N3CCNCC3)nc3cccnc23)CC1` [M, 2-piperazino-4-(1',1'-dioxide-thiomorpholino)-pyrido[3,2-d]pyrimidine dihydrochloride], for which, in the data set “acute toxicity (LD50)”, the LD50 at 336 h was more than 250 mg/kg and the mortality at 336 h turned out to be 0%. In the data set with bleeding time, this compound returned a change in vivo at 10 mg/kg of 98%. This compound had an inhibition at 50 µM in data set [1] of 88%.

For the compound `Cl.Cl.c1cnc2c(N3CCCCC3)nc(N3CCSCC3)nc2c1` [N, 2-thiomorpholino-4-piperidino-pyrido[3,2-d]pyrimidine dihydrochloride], in the data set “acute toxicity (LD50)”, the LD50 at 336 h was more than 250 mg/kg and the mortality at 336 h came out at 0%. In the data set on bleeding time, the change in vivo at 10 mg/kg worked out at 98%. In data set [1], the inhibition at 50 µM is 77%.

With `[O-][S+]1CCN(c2nc(N3CCNCC3)c3ncccc3n2)CC1` [O, 2-(1'-oxido-thiomorpholino)-4-piperazino-pyrido [3,2-d]pyrimidine], in “acute toxicity (LD50)”, the 50% lethal dose (LD50) at 336 h was more than 250 mg/kg and the mortality at 336 h came out at 0%. The hypotensive activity entry in data set [2] is given as “particularly pronounced”. In addition, in the data set on bleeding time, the change in vivo at 10 mg/kg is 35%. The inhibition at 50 µM in data set [1] was found to be 98%.

In turn, `Cc1ccc2nc(N3CCNCC3)nc(N3CC[S+]([O-])CC3)c2n1` [P, 2-piperazino-4-(1'-oxido-thiomorpholino)-6-methylpyrido[3,2-d]pyrimidine d ihydrochloride] came in with a change in vivo at 10 mg/kg in the data set on bleeding time of 98%. Moreover, testing at 50 µM in data set [1] gave an inhibition of 89%.

The compound `Cc1ccc2nc(N3CCSCC3)nc(N3CCNCC3)c2n1` [Q, 2-thiomorpholino-4-piperazino-6-methyl-pyrido[3,2-d] pyrimidine dihydrochloride] yielded an inhibition at 50 µM in data set [1] of 34%.

In general, LD50 refers to the dose expected to kill half of the subjects tested. The low end stands for a more toxic substance, the high end for a less toxic substance. Broadly, the inhibition is the percentage by which the read-out fell short of the control.

The values are drawn from patent US3939268A, “2,4-Diamino substituted pyridol(3,2-d)pyrimidine as antithrombotic agents” (Boehringer Ingelheim GmbH, priority 1971, dated 1976).
